The source of these data is patent publication US9487813B2, “Antifungal target” (F2G LTD, priority 2009, dated 2016).

One test has as its target T1, A. fumigatus PPTB (Aspergillus fumigatus, UniProt Q4W9R0).
T1 construct: NusA; His tag (vector-encoded, inferred from Ni-NTA purification); made in house; host or cells: E. coli BL21 (DE3)
T1 sequence (Q4W9R0 1-153): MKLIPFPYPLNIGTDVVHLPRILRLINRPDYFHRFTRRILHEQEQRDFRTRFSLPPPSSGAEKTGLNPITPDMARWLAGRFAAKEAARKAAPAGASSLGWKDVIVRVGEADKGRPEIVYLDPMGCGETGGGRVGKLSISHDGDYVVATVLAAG
The test can be described thus: fluorescence polarisation PPTB assay / high-throughput screen (CoA-Bodipy TMR transfer to ACP). The class given is biochemical. As to conditions: IC50 for CoA, assay carried out using unlabelled coenzyme A. On the procedure: High-throughput fluorescent polarization screens for PPTB inhibitors were carried out in black, flat-bottom 384 well plates using the following equipment: Thermo Labsystems Multidrop 384 machine (Multidrop® 384) with dispensing cassette and plate adapter; Tecan Genesis Freedom and Tecan Te—Mo automated liquid handling robot with 235 μl tip head, plus appropriate PC/base unit/software; PerkinElmer Minitrak automated liquid handling robot with 235 μl tip head plus appropriate PC/base unit/software; and PerkinElmer Fusion-Alpha-FP HT plate reading spectrophotometer plus appropriate FP filters (Excitation filter 540 nm; Emission filter 580 nm, both filters with 20 nm bandwidth).
Buffer A: 62.5 mM Bis-Tris buffer (pH 6.75), 12.5 mM MgCl2. The final concentrations in the assay were 50 mM Bis-Tris and 10 mM MgCl2.
CoA-Bodipy TMR-ACP mix: 11.6 ml ACP (3.421 mg/ml) plus 1854.7 μl CoA-Bodipy TMR stock (see Section 3.2 above) was made up to 529.9 ml with Buffer A at 4° C.
PPTB enzyme: PPTB enzyme was typically used at 50 to 100 ng total protein/well; enzyme was used at a concentration that gave reaction linearity with respect to both time and protein concentration. This had to be determined for each enzyme batch. […]
Assays were carried out in black, flat-bottomed 384-well plates. […] The reaction was terminated by the addition of 25 μl Stop Reagent, after which plates were read in a spectrophotometer. […]

For a further test, the target named is recombinant PPTB (Aspergillus fumigatus, UniProt Q4W9R0). The conditions noted are these: in the presence of magnesium ions and CoA-Bodipy TMR.

From the text for recombinant PPTB: In the present work PPTB assays used a fluorescently-labelled coenzyme A molecule (CoA-Bodipy TMR), such that PPTB activity transferred the label onto the ACP. The PPTB reaction could therefore be followed by separating the products of the PPTB reaction on an SDS-PAGE gel and illuminating with UV light to see whether the ACP band had become fluorescent. For the high-throughput screen, the PPTB assays used a fluorescence polarisation approach. This measures changes in the orientation of plane-polarized light brought about by fluorophores that undergo significant molecular motion during their fluorescence lifetime. […] The reduction in rotation causes a reduction in the ability of the Bodipy TMR molecule to depolarise plane-polarised light, which can be measured.
Further experiments were carried out using fluorescence polarization to optimise the PPTB assay for high-throughput screening.

With `CC(C)(COP(=O)(O)OP(=O)(O)OC[C@H]1O[C@@H](n2cnc3c(N)ncnc32)[C@H](O)[C@@H]1OP(=O)(O)O)[C@@H](O)C(=O)NCCC(=O)NCCS` [CoA, coenzyme A], the results for the 50% inhibitory concentration (IC50) against A. fumigatus PPTB (plates read after 105 hours) and on A. fumigatus PPTB (plates read on day one) were 5.9 µM and 6.02 µM, respectively.
Consider `O=C(O)CN(CCN(CC(=O)O)CC(=O)O)CC(=O)O` [EDTA], for which the “effect on the labelling reaction of ACP” value at recombinant PPTB is “inhibited”.
